Reference: ChEMBL document CHEMBL3217572, “Preparation and evaluation of BBB-permeable trehalose derivatives as potential therapeutic agents for Huntington's disease” (Medchemcomm, 2013)
Active and inactive are the calls of the source. No cut-off for these calls is given here.

Assays:
RAW264.7 = assay: Cytotoxicity against mouse RAW264.7 cells by MTT assay; format: cell-based
[1] = Cytotoxicity against african green monkey COS7 cells by MTT assay; format: cell-based; settings: Chlorocebus aethiops, COS-7
HeLa [2] = assay: Cytotoxicity against human HeLa cells by MTT assay; format: cell-based
[3] = molecular target: Huntingtin (Homo sapiens) (UniProt P42858); assay: Inhibition of N-terminal GFP-tagged Htt-exon1-Q103 (unknown origin) transfected in HEK293A cells assessed as reduction of Htt-Q103 aggregate formation at 50 uM after 3 days by fluorescence microscopic analysis; format: cell-based; settings: HEK293-A
[4] = Solubility in water; format: physicochemical; settings: buffer
[5] = molecular target: Huntingtin (Homo sapiens) (UniProt P42858); assay: Inhibition of N-terminal GFP-tagged Htt-exon1-Q25 (unknown origin) transfected in HEK293A cells assessed as reduction of Htt-Q103 aggregate formation at 50 uM after 3 days by fluorescence microscopic analysis; format: cell-based; settings: HEK293-A
HeLa [6] = assay: Cellular uptake in human HeLa cells at 5 to 10 uM after 10 mins by FACS analysis; format: ADME, cell-based
Mus musculus [7] = assay: Toxicity in C57BL/6 mouse at 454 mg/kg, po; format: organism-based; parameters: dose 454 mg/kg, route oral; settings: in vivo
Mus musculus [8] = assay: Toxicity in C57BL/6 mouse at 90.9 mg/kg, ip; format: organism-based; parameters: dose 90.9 mg/kg, route intraperitoneal; settings: in vivo
[9] = Cellular uptake in nucleus of human HeLa cells at 1 uM up to 1 hr by confocal microscopic analysis; format: ADME, cell-based
Brain [10] = assay: Biodistribution in C57BL/6 mouse brain at 90.9 mg/kg, ip after 60 mins by fluorescence microscopic analysis; format: ADME, organism-based; parameters: dose 90.9 mg/kg, route intraperitoneal; settings: in vivo, 1 h
Brain [11] = assay: Biodistribution in C57BL/6 mouse brain at 454 mg/kg, po after 24 hrs by fluorescence microscopic analysis; format: ADME, organism-based; parameters: dose 454 mg/kg, route oral; settings: in vivo
Spleen = assay: Biodistribution in C57BL/6 mouse spleen at 454 mg/kg, po after 24 hrs by fluorescence microscopic analysis; format: ADME, organism-based; parameters: dose 454 mg/kg, route oral; settings: in vivo
Kidney = assay: Biodistribution in C57BL/6 mouse kidney at 90.9 mg/kg, ip after 60 mins by fluorescence microscopic analysis; format: ADME, organism-based; parameters: dose 90.9 mg/kg, route intraperitoneal; settings: in vivo, 1 h
[12] = Cellular uptake in cytoplasm of human HeLa cells at 10 uM after 10 mins by confocal microscopic analysis in presence mitotracker; format: ADME, cell-based
[13] = Cellular uptake in cytoplasm of human HeLa cells at 1 uM up to 1 hr by confocal microscopic analysis; format: ADME, cell-based
Mus musculus [14] = assay: Inhibition of mutated aggregate formation in brain homogenate of R6/2 transgenic mouse at 0.4%, po by Hoechst staining-based by immunohistochemistry; format: functional, organism-based
[15] = molecular target: Huntingtin (Homo sapiens) (UniProt P42858); assay: Inhibition of N-terminal Htt-exon1-Q103 (unknown origin) transfected in mouse Neuro2a cells assessed as decrease in soluble and insoluble aggregate formation by Western blotting analysis; format: cell-based
Mus musculus [16] = assay: Neuroprotective activity in R6/2 transgenic mouse assessed as increased locomotory activity at 0.4%, po measured for 20 mins; format: functional, organism-based
Mus musculus [17] = assay: Neuroprotective activity in R6/2 transgenic mouse assessed as improved motor coordination and balance at 0.4%, po measured up to 8 weeks by rotarod test; format: functional, organism-based
Mus musculus [18] = assay: Neuroprotective activity in wild type mouse assessed as behavioral pattern at 0.4%, po; format: ADME, organism-based; settings: in vivo
Mus musculus [19] = assay: Inhibition of mutated huntingtin aggregate formation in liver homogenate of R6/2 transgenic mouse at 0.4%, po after 4 to 8 weeks by Western blotting analysis; format: functional, organism-based
Mus musculus [20] = assay: Toxicity in R6/2 transgenic mouse assessed as body weight loss at 0.4%, po measured on week 12; format: organism-based; settings: in vivo
Mus musculus [21] = assay: Neuroprotective activity in R6/2 transgenic mouse assessed as increase in mean survival time at 0.4%, po (reference value: 93 days); format: functional
Mus musculus [22] = assay: Toxicity in R6/2 transgenic mouse assessed as increase in body weight at 0.4%, po measured up to 9 weeks; format: organism-based; settings: in vivo, 1512 h
[23] = molecular target: Huntingtin (Homo sapiens) (UniProt P42858); assay: Inhibition of N-terminal Htt-exon1-Q103 (unknown origin) transfected in HEK293A cells at 50 uM by Western blotting analysis; format: cell-based; settings: HEK293-A
Mus musculus [24] = assay: Neuroprotective activity in R6/2 transgenic mouse assessed as reduction of foot-clasping posture at 0.4%, po measured on week 8; format: functional, organism-based
[25] = molecular target: Huntingtin (Homo sapiens) (UniProt P42858); assay: Inhibition of N-terminal GFP-tagged Htt-exon1-Q103 (unknown origin) transfected in Neuro2a cells assessed as reduction of Htt-Q103 aggregate formation at 100 uM by fluorescence microscopic analysis; format: cell-based
[26] = molecular target: Huntingtin (Homo sapiens) (UniProt P42858); assay: Inhibition of N-terminal GFP-tagged Htt-exon1-Q103 (unknown origin) transfected in HEK293A cells assessed as reduction of Htt-Q103 aggregate formation by filter trap assay; format: cell-based; settings: HEK293-A
Mus musculus [27] = assay: Inhibition of mutated huntingtin aggregate formation in brain homogenate of R6/2 transgenic mouse at 0.4%, po by Western blotting analysis; format: functional, organism-based
Mus musculus [28] = assay: Neuroprotective activity in R6/2 transgenic mouse assessed as increased mean survival time at 1%, po (reference value: 93 days); format: functional
Mus musculus [29] = assay: Toxicity in R6/2 transgenic mouse assessed as body weight loss at 1%, po measured on week 12; format: organism-based; settings: in vivo
Mus musculus [30] = assay: Inhibition of mutated huntingtin aggregate formation in liver homogenate of R6/2 transgenic mouse at 1%, po after 4 to 8 weeks by Western blotting analysis; format: functional, organism-based
Mus musculus [31] = assay: Inhibition of mutated aggregate formation in brain homogenate of R6/2 transgenic mouse at 1%, po by Hoechst staining-based by immunohistochemistry; format: functional, organism-based
[32] = molecular target: Huntingtin (Homo sapiens) (UniProt P42858); assay: Inhibition of N-terminal GFP-tagged Htt-exon1-Q103 (unknown origin) transfected in HEK293A cells assessed as reduction of Htt-Q103 aggregate formation at 200 uM by filter trap assay; format: cell-based; settings: HEK293-A

Sequence of Huntingtin (Homo sapiens) (P42858 whole entry): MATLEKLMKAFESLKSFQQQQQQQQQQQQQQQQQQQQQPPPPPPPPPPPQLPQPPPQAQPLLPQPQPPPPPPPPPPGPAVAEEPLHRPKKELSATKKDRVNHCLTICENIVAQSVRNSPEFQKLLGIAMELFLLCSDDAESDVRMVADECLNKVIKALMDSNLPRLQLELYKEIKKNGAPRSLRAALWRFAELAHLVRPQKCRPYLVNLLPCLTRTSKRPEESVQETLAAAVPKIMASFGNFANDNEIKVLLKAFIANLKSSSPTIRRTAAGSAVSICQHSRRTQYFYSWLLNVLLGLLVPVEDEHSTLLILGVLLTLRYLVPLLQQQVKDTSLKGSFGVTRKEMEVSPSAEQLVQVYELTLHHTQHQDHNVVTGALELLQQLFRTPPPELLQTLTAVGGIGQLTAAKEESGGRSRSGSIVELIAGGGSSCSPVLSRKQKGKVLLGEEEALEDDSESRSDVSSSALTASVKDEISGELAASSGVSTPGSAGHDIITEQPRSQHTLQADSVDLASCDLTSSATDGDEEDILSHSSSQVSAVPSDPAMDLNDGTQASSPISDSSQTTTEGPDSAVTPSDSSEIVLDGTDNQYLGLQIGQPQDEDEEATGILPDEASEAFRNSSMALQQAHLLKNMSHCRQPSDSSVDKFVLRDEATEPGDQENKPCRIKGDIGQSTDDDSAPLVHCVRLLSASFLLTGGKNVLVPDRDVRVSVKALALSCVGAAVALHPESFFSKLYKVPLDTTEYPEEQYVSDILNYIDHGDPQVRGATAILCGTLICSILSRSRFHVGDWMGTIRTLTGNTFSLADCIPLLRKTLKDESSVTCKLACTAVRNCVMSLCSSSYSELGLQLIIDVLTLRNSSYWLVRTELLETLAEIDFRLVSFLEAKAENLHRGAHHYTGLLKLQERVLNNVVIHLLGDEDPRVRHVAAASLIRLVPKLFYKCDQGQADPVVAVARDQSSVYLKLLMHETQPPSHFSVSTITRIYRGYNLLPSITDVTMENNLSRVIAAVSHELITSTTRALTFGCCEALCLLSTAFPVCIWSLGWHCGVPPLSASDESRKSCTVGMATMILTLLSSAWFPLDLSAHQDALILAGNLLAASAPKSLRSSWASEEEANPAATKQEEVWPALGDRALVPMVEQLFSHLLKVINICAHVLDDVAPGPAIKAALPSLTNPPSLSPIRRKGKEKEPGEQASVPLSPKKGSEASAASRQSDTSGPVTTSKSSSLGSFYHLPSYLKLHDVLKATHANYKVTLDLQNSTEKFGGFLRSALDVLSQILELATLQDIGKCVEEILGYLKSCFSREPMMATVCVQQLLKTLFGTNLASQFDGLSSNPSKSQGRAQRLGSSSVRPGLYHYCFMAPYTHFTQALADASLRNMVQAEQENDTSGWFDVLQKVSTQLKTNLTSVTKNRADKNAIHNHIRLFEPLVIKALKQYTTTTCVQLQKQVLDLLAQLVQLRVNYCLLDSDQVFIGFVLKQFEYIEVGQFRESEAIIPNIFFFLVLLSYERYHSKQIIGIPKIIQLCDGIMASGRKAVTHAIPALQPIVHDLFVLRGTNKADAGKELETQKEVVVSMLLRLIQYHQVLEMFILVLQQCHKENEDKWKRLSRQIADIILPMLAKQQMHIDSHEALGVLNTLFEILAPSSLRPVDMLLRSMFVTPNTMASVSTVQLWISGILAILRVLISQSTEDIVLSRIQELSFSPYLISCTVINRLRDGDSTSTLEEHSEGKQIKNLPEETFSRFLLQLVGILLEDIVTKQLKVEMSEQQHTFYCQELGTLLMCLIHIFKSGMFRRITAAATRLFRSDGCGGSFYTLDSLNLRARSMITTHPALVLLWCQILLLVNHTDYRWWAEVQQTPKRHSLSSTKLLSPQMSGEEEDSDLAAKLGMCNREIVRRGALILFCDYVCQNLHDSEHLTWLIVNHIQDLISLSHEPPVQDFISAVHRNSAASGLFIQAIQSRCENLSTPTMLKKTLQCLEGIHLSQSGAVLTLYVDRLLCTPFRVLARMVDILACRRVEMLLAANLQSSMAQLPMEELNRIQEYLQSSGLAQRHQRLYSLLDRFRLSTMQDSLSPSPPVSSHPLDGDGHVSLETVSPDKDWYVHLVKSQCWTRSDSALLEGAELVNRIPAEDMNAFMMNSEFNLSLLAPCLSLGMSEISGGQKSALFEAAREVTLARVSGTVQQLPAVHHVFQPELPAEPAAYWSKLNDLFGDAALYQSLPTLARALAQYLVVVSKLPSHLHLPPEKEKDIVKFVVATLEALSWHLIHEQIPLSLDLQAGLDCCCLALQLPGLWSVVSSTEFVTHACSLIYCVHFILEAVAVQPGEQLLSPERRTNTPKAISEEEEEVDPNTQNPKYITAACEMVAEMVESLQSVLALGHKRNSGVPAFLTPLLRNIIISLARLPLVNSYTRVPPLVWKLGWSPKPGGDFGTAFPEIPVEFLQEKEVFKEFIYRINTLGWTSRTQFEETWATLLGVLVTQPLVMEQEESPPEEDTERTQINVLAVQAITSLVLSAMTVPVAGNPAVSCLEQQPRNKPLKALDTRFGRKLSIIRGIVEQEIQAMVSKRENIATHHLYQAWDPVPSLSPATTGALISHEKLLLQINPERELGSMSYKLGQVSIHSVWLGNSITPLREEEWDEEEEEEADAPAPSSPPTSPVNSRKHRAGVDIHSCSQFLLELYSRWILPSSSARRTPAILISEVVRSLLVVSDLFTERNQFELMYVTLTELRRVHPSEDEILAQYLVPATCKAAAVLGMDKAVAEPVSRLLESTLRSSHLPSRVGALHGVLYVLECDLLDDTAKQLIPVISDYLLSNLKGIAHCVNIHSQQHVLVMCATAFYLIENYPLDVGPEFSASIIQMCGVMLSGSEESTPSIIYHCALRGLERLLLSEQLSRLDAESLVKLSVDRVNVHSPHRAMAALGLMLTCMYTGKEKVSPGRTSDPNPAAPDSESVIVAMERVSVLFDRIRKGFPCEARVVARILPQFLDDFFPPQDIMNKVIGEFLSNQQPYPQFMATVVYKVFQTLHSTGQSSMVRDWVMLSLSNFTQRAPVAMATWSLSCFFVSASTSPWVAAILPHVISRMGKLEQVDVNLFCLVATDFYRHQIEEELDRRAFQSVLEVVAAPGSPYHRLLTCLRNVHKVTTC

Question: With `Cl.N=C(N)NCCCCCC(=O)OC[C@H]1O[C@H](O[C@H]2O[C@H](COC(=O)CCCCCNC(=N)N)[C@@H](OC(=O)CCCCCNC(=N)N)[C@H](OC(=O)CCCCCNC(=N)N)[C@H]2OC(=O)CCCCCNC(=N)N)[C@H](OC(=O)CCCCCNC(=N)N)[C@@H](OC(=O)CCCCCNC(=N)N)[C@@H]1OC(=O)CCCCCNC(=N)N` as the molecule, how does the IC50 (RAW264.7) read?
Answer: < 100 µM

Question: What about the IC50 [1] of the same molecule?
Answer: < 100 µM

Question: What about the IC50 (HeLa [2]) of the same molecule?
Answer: < 100 µM

Question: And the inhibition [3]?
Answer: inactive

Question: What about the solubility [4] of the same molecule?
Answer: soluble

Question: And the inhibition [5]?
Answer: inactive

Question: For `Cl.N=C(N)NCCCCCC(=O)O[C@@H]1[C@@H](OC(=O)CCCCCNC(=N)N)[C@@H](O[C@H]2O[C@H](COC(=O)CCCCCNC(=S)Nc3ccc(-c4c5ccc(=O)cc-5oc5cc(O)ccc45)c(C(=O)O)c3)[C@@H](OC(=O)CCCCCNC(=N)N)[C@H](OC(=O)CCCCCNC(=N)N)[C@H]2OC(=O)CCCCCNC(=N)N)O[C@H](COC(=O)CCCCCNC(=S)Nc2ccc(-c3c4ccc(=O)cc-4oc4cc(O)ccc34)c(C(=O)O)c2)[C@H]1OC(=O)CCCCCNC(=N)N`, which Drug uptake (HeLa [6]) is on record?
Answer: Active

Question: What about the Activity (Mus musculus [7]) of the same molecule?
Answer: Non-toxic

Question: What about the Activity (Mus musculus [8]) of the same molecule?
Answer: Non-toxic

Question: And the Drug uptake [9]?
Answer: Active

Question: And the Drug uptake (Brain [10])?
Answer: Active

Question: What about the Drug uptake (Brain [11]) of the same molecule?
Answer: Active

Question: What about the Drug uptake (Spleen) of the same molecule?
Answer: Active

Question: What about the Drug uptake (Kidney) of the same molecule?
Answer: Active

Question: What about the Drug uptake [12] of the same molecule?
Answer: Active

Question: What about the solubility [4] of the same molecule?
Answer: soluble

Question: What about the Drug uptake [13] of the same molecule?
Answer: Active

Question: Which results are given for `Cl.N=C(N)NCCCCCC(=O)O[C@@H]1[C@@H](OC(=O)CCCCCNC(=N)N)[C@@H](O[C@H]2O[C@H](CO)[C@@H](OC(=O)CCCCCNC(=N)N)[C@H](OC(=O)CCCCCNC(=N)N)[C@H]2OC(=O)CCCCCNC(=N)N)O[C@H](CO)[C@H]1OC(=O)CCCCCNC(=N)N`?
Answer: IC50 (RAW264.7): > 100 µM; inhibition (Mus musculus [14]): Active; inhibition [15]: Dose-dependent effect; IC50 [1]: > 100 µM; Activity (Mus musculus [16]): Active; Activity (Mus musculus [17]): Active; Activity (Mus musculus [18]): Non-toxic; IC50 (HeLa [2]): > 100 µM; inhibition [3]: Active; inhibition (Mus musculus [19]): Active; Activity (Mus musculus [20]): 14%; MSD (Mus musculus [21]): 98.5 days; Activity (Mus musculus [22]): Non-toxic; inhibition [23]: Active; solubility [4]: soluble; inhibition [5]: inactive; Activity (Mus musculus [24]): Active; inhibition ([25]; TDE = time-dependent effect): tde; inhibition [26]: Dose-dependent effect; inhibition (Mus musculus [27]): Active

Question: What does the source list for `OC[C@H]1O[C@H](O[C@H]2O[C@H](CO)[C@@H](O)[C@H](O)[C@H]2O)[C@H](O)[C@@H](O)[C@@H]1O` [TREHALOSE]?
Answer: MSD (Mus musculus [28]): 94.5 days; Activity (Mus musculus [29]): 25%; inhibition (Mus musculus [30]): Active; inhibition [3]: inactive; inhibition (Mus musculus [31]): Active; inhibition [32]: inactive; inhibition [25]: inactive
